Measurements published in US11572590B2, “Methods for evaluating tumor cell spheroids using 3D microfluidic cell culture device” (Dana-Farber Cancer Institute, Inc., priority 2017, dated 2023).

Legend:
[1] = test system: CT26 spheroids (lacking immune cells); assay: Bead-based cytokine profiling of CT26 spheroids lacking immune cells; assay type: cell-based, murine; conditions: Day 1, 3, and 6
Description: (§1) Fresh tumor specimens (murine and human patients) were received in media (DMEM) on ice and minced in a 10 cm dish (on ice) using sterile forceps and scalpel. Minced tumor was resuspended in DMEM ([…], […] sodium pyruvate, 1:100 penicillin-streptomycin) (Corning CellGro, Manassas, Va.) +10% FBS (Gemini Bio-Products, West Sacramento, Calif.), 100 U/mL collagenase type IV (Life Technologies, Carlsbad, Calif.), and 15 mM HEPES (Life Technologies, Carlsbad, Calif.), except for CT26 tumors that were prepared in RPMI. Samples were pelleted and resuspended in 10-20 mL media. Red blood cells were removed from visibly bloody samples using RBC Lysis Buffer (Boston Bio-Products, Ashland, Mass.). […]
Two multiplex assays were performed utilizing a bead-based immunoassay approach, the Bio-Plex Pro™ Human Cytokine 40-plex Assay (Cat #171AK99MR2) and Bio-Plex Pro™ Mouse Cytokine Panel 1, 23-plex (Cat #M60009RDPD) on a Bio-plex 200 system (Cat #171000201). […] Fold changes relative to the MDOT/PDOT control were calculated and plotted as log 2FC. Lower and upper limits of quantitation (LLOQ/ULOQ) were imputed from standard curves for cytokines above or below detection. […]

[2] = test system: CT26 spheroids lacking immune cells; assay: Viability of CT26 spheroids lacking immune cells; assay type: cell-based
Description: as §1
Dual labeling was performed by loading microfluidic device with Nexcelom ViaStain™ AO/PI Staining Solution (Nexcelom, CS2-0106). Following incubation with the dyes (20 minutes at room temperature in the dark), images were captured on a Nikon Eclipse 80i fluorescence microscope equipped with Z-stack (Prior) and CoolSNAP CCD camera (Roper Scientific). […] Live and dead cell quantitation was performed by measuring total cell area of each dye. […]

## N#Cc1cc(-c2ncnc(Nc3ccc(N4CCN(C5COC5)CC4)cc3)n2)ccc1OC1CCOCC1 [Compound 1, 5-(4-((4-(4-(oxetan-3-yl)piperazin-1-yl)phenyl)amino)-1,3,5-triazin-2-yl)-2-((tetrahydro-2H-pyran-4-yl)oxy)benzonitrile]
[1]
  immune suppressive cytokine elaboration by CT26 cell line spheroids: effectively blocked
[2]
  cytotoxic effects on CT26 cell line spheroids (viability): without cytotoxic effects
